Counter-ions that a name gives are not always drawn.
Experiments:
[1] = system: diabetic mice induced by streptozotocin; assay: Animal test: blood glucose level in streptozotocin-induced diabetic mice, 10 days; assay type: in vivo; settings: for capacity of lowering blood glucose, folacin-metformin compared with metformin hydrochloride (in words): diabetic mice, 10 days, 350 mg/kg vs 100 mg/kg body weight; for blood glucose level, After use: streptozotocin diabetic mice, day 10, folacin-metformin 350 mg/kg body weight, metformin hydrochloride 100 mg/kg body weight, mean of 6 mice
Description: (§1) The female mice were induced to diabetic mice by streptozotocin (body weight […]), 6 animals in one group. The data in the table below represented the average of the values of six mice. Normal healthy mice were used as control group 1, control group 2, and control group 3. Control group 1 was administered folacin-metformin (350 mg/kg body weight), control group 2 was administered metformin hydrochloride (100 mg/kg body weight), and control group 3 was administered normal saline. Diabetic mice were divided into three groups, each group was fed folacin-metformin (350 mg/kg body weight), metformin hydrochloride (100 mg/kg body weight) and normal saline, separately. The test lasted for 10 days, and the blood glucose levels and the homocysteine concentrations were detected for all the mice by the end of the test.
(§2) On day 10 of the test, test mice were anaesthetized by i.p. injection of 65 mg/kg body weight of sodium pentobarbital, then collected blood sample from the abdominal aorta. Blood glucose levels were determined by a standard protocol (Methods of Enzymatic Analysis, Vol. 3, 2nd ed. Verlag Chemie International, 1981, p1196-1201), and the homocysteine concentrations in the blood samples were determined using high performance liquid chromatograph according to the literature (Eur. J. Clin. Chem. Clin. Biochem. 1991, 29, 549-554).

[2] = after long-term use, recent clinical application; cited from earlier work
[3] = system: normal healthy mice; assay: Animal test: blood glucose level in normal healthy mice (control groups), 10 days; assay type: in vivo; settings: for blood glucose level, After use: normal healthy mice, day 10, folacin-metformin 350 mg/kg body weight, metformin hydrochloride 100 mg/kg body weight, mean of 6 mice
Description: as §1, §2

[4] = system: diabetic mice induced by streptozotocin; assay: Animal test: homocysteine concentration in blood of streptozotocin-induced diabetic mice, 10 days; assay type: in vivo; settings: metformin hydrochloride 100 mg/kg body weight
Description: as §1, §2

[5] = system: normal healthy mice; assay: Animal test: homocysteine concentration in blood of normal healthy mice (control groups), 10 days; assay type: in vivo; settings: metformin hydrochloride 100 mg/kg body weight
Description: as §1, §2

SMILES | capacity of lowering blood glucose, folacin-metformin compared with metformin hydrochloride (in words) [1] | blood glucose level, After use [1] [mmol/L] | homocystein concentration in the patient (in words) [2] | blood glucose level, After use [3] [mmol/L] | increase of the homocysteine concentration while lowering the blood glucose (in words) ([4]; diabetic mice, 10 days, folacin-metformin 350 mg/kg) | homocystein concentration, After use ([4]; streptozotocin diabetic mice, day 10, folacin-metformin 350 mg/kg body weight, mean of 6 mice) [µmol/L] | effect on the blood glucose level (in words) ([3]; healthy mice, 10 days, 350 mg/kg body weight) | effect on the blood homocysteine concentration (in words) ([5]; healthy mice, 10 days, folacin-metformin 350 mg/kg) | homocystein concentration, After use ([5]; normal healthy mice, day 10, folacin-metformin 350 mg/kg body weight, mean of 6 mice) [µmol/L]
CN(C)C(=N)N=C(N)N [metformin hydrochloride, reference compound] | no difference | 7.6 ± 1.4 | substantially increased | 7.4 ± 1.7 | – | – | – | – | –
CN(C)C(=N)N=C(N)N.Nc1nc2ncc(CNc3ccc(C(=O)N[C@@H](CCC(=O)O)C(=O)O)cc3)nc2c(=O)[nH]1 [folacin-metformin] | no difference | 7.4 ± 1.7 | – | 7.2 ± 1.2 | does not increase | 8.9 ± 0.9 | no effect | slight lowering effect | 9.3 ± 1.1
